{"source": "patent US20160001001A1", "about": "(priority 2013, published 2016)", "origin": "cited, not measured here", "settings": "in vivo"}
{"compound": "CN1CC[C@]23c4c5ccc(O)c4O[C@H]2[C@@H](O)C=C[C@H]3[C@H]1C5", "note": "[Morphine]", "values": [{"measurement": "Onset time", "value": 8, "unit": "min"}, {"measurement": "Time elapsing until the maximum analgesic effect is reached", "value": 25, "unit": "min"}]}
